The target in this assay is T1, EPHB3 (Homo sapiens, UniProt P54753).
T1 construct: purchased Thermo Fisher Scientific (Life Technologies) SelectScreen
The assay can be described thus: SelectScreen Z'LYTE. In kind it is biochemical. Summed up:
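SelectScreen broad panel; activity (Z'LYTE, Adapta) plus binding formats. ATP: Km app for CSF1R Z'LYTE; 10 for CAMK1 Adapta. Readout = % per kinase.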

The term inhibition denotes the relative decrease from the control value, in per cent. Lower therefore signals little suppression.

Structures are written as SMILES.

T1 sequence (P54753 34-998): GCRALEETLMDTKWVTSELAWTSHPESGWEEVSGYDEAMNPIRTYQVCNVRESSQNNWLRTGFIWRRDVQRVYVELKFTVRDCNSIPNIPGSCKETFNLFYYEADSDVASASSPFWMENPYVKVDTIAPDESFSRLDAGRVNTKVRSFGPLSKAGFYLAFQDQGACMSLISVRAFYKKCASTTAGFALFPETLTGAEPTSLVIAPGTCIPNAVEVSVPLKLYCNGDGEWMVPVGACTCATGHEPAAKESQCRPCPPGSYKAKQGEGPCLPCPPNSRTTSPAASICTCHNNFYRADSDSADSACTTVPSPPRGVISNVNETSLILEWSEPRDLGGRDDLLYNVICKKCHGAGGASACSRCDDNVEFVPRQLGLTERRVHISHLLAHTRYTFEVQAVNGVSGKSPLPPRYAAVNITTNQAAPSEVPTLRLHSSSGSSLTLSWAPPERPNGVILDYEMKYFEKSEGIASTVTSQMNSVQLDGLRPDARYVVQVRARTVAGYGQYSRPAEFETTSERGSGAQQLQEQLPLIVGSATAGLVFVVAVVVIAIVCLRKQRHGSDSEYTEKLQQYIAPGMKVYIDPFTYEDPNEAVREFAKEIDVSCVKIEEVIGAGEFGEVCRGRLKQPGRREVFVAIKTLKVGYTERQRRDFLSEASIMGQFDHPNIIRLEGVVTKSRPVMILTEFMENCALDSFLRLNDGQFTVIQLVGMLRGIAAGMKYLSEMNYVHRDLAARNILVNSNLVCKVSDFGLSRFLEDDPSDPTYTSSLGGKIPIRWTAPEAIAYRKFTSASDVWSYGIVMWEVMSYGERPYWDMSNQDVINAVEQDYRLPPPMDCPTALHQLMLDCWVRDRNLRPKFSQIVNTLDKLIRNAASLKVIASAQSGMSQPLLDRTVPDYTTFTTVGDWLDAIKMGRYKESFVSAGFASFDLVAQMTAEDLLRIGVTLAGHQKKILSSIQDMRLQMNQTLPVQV

`CN(C(=O)CN1CCOCC1)c1ccc2sc3c(-c4cccc5c(=O)cc(N6CC7CCC(C6)O7)oc45)cccc3c2c1` [NU5455] showed an inhibition at 1 µM of 1.1%.

(Values after PMC6934184, “Selective DNA-PKcs inhibition extends the therapeutic index of localized radiotherapy and chemotherapy” (The Journal of Clinical Investigation, 2019).)
